# From patent US20050180954A1, “Drug for treating bone disorders” (priority 1995, published 2005)
# Tests used:
# [1] = Osteoporosis model mice: change in body weight; type: in vivo, mouse; settings: administration continuously for 4 weeks at a dose exhibiting the therapeutic effect
# Description: (§1) Female mice of ddy strain of 8 weeks old were divided into 5 groups and experiment was carried out. Bilateral ovariectomy was performed on the mice in 3 groups and sham operation alone was performed on the mice in 2 groups. Thereafter, the mice were raised with normal diet for 1 month, thereby making the state of osteoporosis in the ovariectomized groups. In this model, it is known that the mice become the state of osteoporosis 2 to 3 weeks after the ovariectomy (T. Hosaka et al., ANITEX, Vol. 5, 243, 1992; Miyaura, C. et al., J. Bone Mineral Res., 10, 1365, 1995). From the third weeks from the ovariectomy, murine IFN was subcutaneously administered (100 μl/head/time) once per day, totally 25 times. On Day 30 from the beginning of administration, under ether anesthesia, body weight was measured, blood was collected, and femur was collected and dry bone weight thereof was measured for each mouse.
# It is well-known that the increase and decrease in the amount of urinary D-Pyr excreted in urine, which is a crosslinked substance of bone collagen, is an excellent marker reflecting the degree of degradation of bone collagen, that is, the degree of bone resorption (C. P. Jerome et al., Bone and Mineral, 19, 117-125, 1992). For measurement of urinary D-Pyr, a commercially available kit (PYRILINKS-D Assay, METRA BIOSYSTEMS) was used. […]
# [2] = test system: ovariectomized mice of ddy strain; experiment: Osteoporosis model mice: urinary D-Pyr (bone resorption marker); type: in vivo, mouse; settings: for amount of excreted urinary D-Pyr compensated with urinary creatinine: ovariectomized mice, Week 4
# Description: as §1
# (§2) Drying of femur was performed as follows. That is, femur was fixed with 2 ml of 70% ethanol per one taken out femur at room temperature for 24 hours and then the attached muscles and connective tissues were carefully removed with a forceps and surgical knife with replaceable blade. After immersing the femur in fresh 70% ethanol for 72 hours at room temperature, the femur was dried in a hot wind-generating incubator (Koukensha Engineering. Co., Tokyo) at 55° C. for 24 hours. The weight of the dried bone was measured with an electronic force balance (Mettler AE50, Metteler Instrumente AG, Switzerland). Murine IFN to be administered was diluted to the desired concentration with physiological saline. During the test, urine of mice was collected with metabolic cage (KN-645, Natsumeseisakusho, Tokyo) and frozen to store. To one group subjected to the sham operation, physiological saline (Otsuka Pharmaceutical Co.) was administered, and to another group subjected to the sham operation, murine IFNβ was administered at a dose of 10^5 units/head/time (diluted with physiological saline when use). […]
# [3] = test system: ovariectomized mice of ddy strain; experiment: Osteoporosis model mice (ovariectomy): dry bone weight of femur; type: in vivo, mouse
# Description: as §1, §2
# MC3T3-E1 cells = experiment: Mineralization of murine osteoblasts, Von Kossa stain (in vitro multiple administration); type: cell-based, mouse; settings: MC3T3-E1, twice administration, Von Kossa on Day 9
# Description: MC3T3-E1 cells were placed in each well in 24-well plates in an amount of 30,000 cells/well and cultured to confluency. The medium was removed and fresh α-MEM containing 10% JCS, 50 μg/ml of L-ascorbic acid and 10 mM β-glycerophosphate was added in an amount of 0.9 ml/well, followed by adding 0.1 ml/well of medium containing varying concentration of IFN. The medium was replaced with the medium containing the respective concentration of IFN every 4 days. On Day 9 from the first treatment with IFN, Von Kossa stain was performed to visualize the calcified foci.
substance,measurement,setting,value
"MuIFNβ: murine interferon β, Lot M-0034, prepared by Toray Industries, Inc. by genetic engineering technique",change in body weight,[1],no problematic change in body weight was observed in any group
same,amount of excreted urinary D-Pyr compensated with urinary creatinine,[2]; 10^3 units/head/time,inhibition of bone resorption was observed
same,amount of excreted urinary D-Pyr compensated with urinary creatinine,[2]; 10^5 units/head/time,inhibition of bone resorption was observed
same,inhibition of excretion of urinary deoxypyridinoline,[2]; sham operation groups,is exhibited also in the sham operation groups
same,bone volume (dry bone weight of femur),"[3]; ovariectomized mice, 10^3 units/head/time s.c.",exhibited prevention effect against further loss in the bone volume
same,bone volume (dry bone weight of femur),"[3]; ovariectomized mice, 10^5 units/head/time s.c. once per day, 25 times, Day 30",recovered the normal level of bone volume
same,bone volume (dry bone weight of femur),"[3]; sham operation mice, 10^5 units/head/time s.c.",significant increase in the bone volume was not observed
same,number of calcified foci and intensity of staining,MC3T3-E1 cells,dose dependently increased
